The subject of test [1] is T47D. Put plainly: Anticancer activity against human T47D cells assessed as cell proliferation incubated for 4 days by MTS assay. It counts as functional, cell-based. The note with it: 96 h.
A further test concerns HEK-293T. Put plainly: Anticancer activity against human HEK293T cells assessed as cell viability at 1 uM by tryphan blue staining based cell counter analysis relative to control. It counts as functional. To be noted: read-out: Activity.
The subject of test [2] is T47D. Put plainly: Anticancer activity against human T47D cells assessed as cell viability at 1 uM by tryphan blue staining based cell counter analysis relative to control. To be noted: read-out: Activity. It is filed as functional.
For a further test, the system named is MCF7. The experiment in a line: Anticancer activity against human MCF7 cells assessed as cell viability at 1 uM by tryphan blue staining based cell counter analysis relative to control. The note with it: read-out: Activity. It counts as functional.
Test [3] deals with MDA-MB-231. Put plainly: Anticancer activity against human MDA-MB-231 cells assessed as cell viability at 1 uM by tryphan blue staining based cell counter analysis relative to control. It counts as functional. The note with it: read-out: Activity.
For a further test, the system named is HeLa. Put plainly: Anticancer activity against human HeLa cells assessed as cell viability at 1 uM by tryphan blue staining based cell counter analysis relative to control. It is filed as functional. The note with it: read-out: Activity.
Another test deals with BT-474. The experiment in a line: Anticancer activity against human BT-474 cells assessed as cell viability at 1 uM by tryphan blue staining based cell counter analysis relative to control. It counts as functional. The note with it: read-out: Activity.
For the next test, the system named is ES-2. Put plainly: Anticancer activity against human ES2 assessed as cell viability at 1 uM by tryphan blue staining based cell counter analysis relative to control. To be noted: read-out: Activity. It counts as functional.
For the next test, the system named is MCF-10A. The experiment in a line: Anticancer activity against human MCF-10A cells assessed as cell viability at 1 uM by tryphan blue staining based cell counter analysis relative to control. It counts as functional. The note with it: read-out: Activity.
Test [4] deals with MDA-MB-231. The experiment in a line: Anticancer activity against human MDA-MB-231 cells assessed as cell growth inhibition incubated for 24 hrs. It counts as functional, cell-based. To be noted: MDA-MB-231, 24 h, pooled result: one value given for 13 cell lines, strains, targets or settings.
Test [5] has as its system T47D. The experiment in a line: Anticancer activity against human T47D cells assessed as cell growth inhibition incubated for 24 hrs. It is filed as functional, cell-based. The note with it: pooled result: one value given for 16 cell lines, strains, targets or settings.

Among the data in ChEMBL document CHEMBL5223101, “Evolution of 3-(4-hydroxyphenyl)indoline-2-one as a scaffold for potent and selective anticancer activity” (RSC Med Chem, 2022) are IC50 and viability values, retold here.

Turning to `Cc1cccc2c1NC(=O)C2(c1ccc(O)cc1)c1ccc(O)cc1`, the IC50 with T47D [1] was 15 nM. The viability at 1 µM in the test on HEK-293T, in the test with T47D [2], with MCF7, in the test on MDA-MB-231 [3], in the test on HeLa and in the test on BT-474 was less than 20% throughout. Further, the viability at 1 µM in the test with ES-2 and in the test on MCF-10A was less than 20% each time.

As for `O=C1Nc2c(C(F)(F)F)cccc2[C@@]1(c1ccc(O)cc1)c1ccc(OC(F)(F)F)cc1`, the IC50 in the test on MDA-MB-231 [4] worked out at 12.4 µM; in the test with T47D [5] it was 34 nM.

As usually defined, the IC50 is the midpoint of a concentration-inhibition curve.
